Experimental findings from PMC8434050, “Design, Synthesis and SAR in 2,4,7-Trisubstituted Pyrido[3,2-d]Pyrimidine Series as Novel PI3K/mTOR Inhibitors” (Molecules, 2021) are described below.

Each structure is given as a SMILES string.

The subject of test [1] is mammary carcinoma MDA-MB231. As to the kind of experiment: Cytotoxic assay on MDA-MB231. In kind it is cell-based. As to conditions: Homo sapiens, MDA-MB-231; 48 h of treatment, cell number by Hoechst nuclei staining, mean of triplicate. The procedure: (§1) Cell culture. Skin normal fibroblastic cells were purchased from Lonza (Basel, Switzerland), HuH7, Caco-2, MDA-MB-231 and Hacat cancer cell lines were obtained from the ECACC collection (Porton Down, UK). Cells were grown at 37 °C, 5% CO2 in ECACC recommended media: DMEM for HuH7, MDA-MB-231 and fibroblast, EMEM for CaCo-2 and Hacat. All culture media were supplemented by 10% of FBS, 1% of penicillin-streptomycin and 2 mM glutamine.
(§2) Cytotoxic assay. Chemicals were solubilized in DMSO at a concentration of 10 mM (stock solution) and diluted in culture medium to the desired final concentrations. […] Cells were plated in 96-well plates (4000 cells/well). Twenty-four hours after seeding, cells were exposed to chemicals. After 48h of treatment, cells were washed in PBS and fixed in cooled 90% ethanol/5% acetic acid for 20 min and the nuclei were stained with Hoechst 33,342 (B2261 Sigma). Image acquisition and analysis were performed using a Cellomics ArrayScan VTI/HCS Reader (ThermoScientific). The survival percentages were calculated as the percentage of cell number after compound treatment over cell number after DMSO treatment. The relative IC50 were calculated using the curve fitting XLfit 5.5.0.5 (idbs) integrated in Microsoft Excel as an add-on. The 4 Parameter Logistic Model or Sigmoidal Dose-Response Model was used (fit = (A + ((B − A)/(1 + ((C/x)^D))))).

Another test has as its system normal human fibroblast. As to the kind of experiment: Cytotoxic assay on fibroblasts. As to conditions: 48 h of treatment, cell number by Hoechst nuclei staining, mean of triplicate. Type of test: cell-based. The protocol:
as §1, §2

The target in another test is mTOR (Homo sapiens, UniProt P42345). As to the kind of experiment: mTOR kinase assay (LANCE Ultra kit; capillary electrophoresis assay). The conditions noted are these: selectivity index, IC50 mTOR / IC50 PI3Kα. Type of test: biochemical. For orientation: Time-resolved FRET reads energy transfer from a long-lived donor to a nearby acceptor.
In a further test the target is PI3Kβ (Homo sapiens, UniProt P42338). As to the kind of experiment: PI3K isoform kinase assay, β (CE-assay). Type of test: biochemical. As to conditions: read-out: IC50 on PI3K Isoforms, β. The procedure: (§3) The CE system used was a 1600 Hewlett Packard^3DCE (Agilent, Waldbronn, Germany) equipped with a photodiode array detection system. Agilent software 3D-CE Chemstation (rev B.04.02) was used to pilot the CE system and for signal acquisition. CE analyses were performed in silica capillaries (66 cm total length, 57.5 cm effective length, 50 µm i.d.) purchased from Polymicro Technologies (Phoenix, AZ, USA). New capillaries were conditioned by 1.0 M NaOH for 30 min and water for 5 min. They were then coated by rinsing with cationic PDADMAC solution (0.2% w/v). The separation was conducted at −30 kV (reverse polarity) and at 30 °C. All rinse cycles were carried out at 4 bars. Between runs, the capillary was flushed for 1 min with water, 2 min with PDADMAC and 3 min with BGE.
Chain of PI3Kβ (P42338 whole entry, canonical isoform): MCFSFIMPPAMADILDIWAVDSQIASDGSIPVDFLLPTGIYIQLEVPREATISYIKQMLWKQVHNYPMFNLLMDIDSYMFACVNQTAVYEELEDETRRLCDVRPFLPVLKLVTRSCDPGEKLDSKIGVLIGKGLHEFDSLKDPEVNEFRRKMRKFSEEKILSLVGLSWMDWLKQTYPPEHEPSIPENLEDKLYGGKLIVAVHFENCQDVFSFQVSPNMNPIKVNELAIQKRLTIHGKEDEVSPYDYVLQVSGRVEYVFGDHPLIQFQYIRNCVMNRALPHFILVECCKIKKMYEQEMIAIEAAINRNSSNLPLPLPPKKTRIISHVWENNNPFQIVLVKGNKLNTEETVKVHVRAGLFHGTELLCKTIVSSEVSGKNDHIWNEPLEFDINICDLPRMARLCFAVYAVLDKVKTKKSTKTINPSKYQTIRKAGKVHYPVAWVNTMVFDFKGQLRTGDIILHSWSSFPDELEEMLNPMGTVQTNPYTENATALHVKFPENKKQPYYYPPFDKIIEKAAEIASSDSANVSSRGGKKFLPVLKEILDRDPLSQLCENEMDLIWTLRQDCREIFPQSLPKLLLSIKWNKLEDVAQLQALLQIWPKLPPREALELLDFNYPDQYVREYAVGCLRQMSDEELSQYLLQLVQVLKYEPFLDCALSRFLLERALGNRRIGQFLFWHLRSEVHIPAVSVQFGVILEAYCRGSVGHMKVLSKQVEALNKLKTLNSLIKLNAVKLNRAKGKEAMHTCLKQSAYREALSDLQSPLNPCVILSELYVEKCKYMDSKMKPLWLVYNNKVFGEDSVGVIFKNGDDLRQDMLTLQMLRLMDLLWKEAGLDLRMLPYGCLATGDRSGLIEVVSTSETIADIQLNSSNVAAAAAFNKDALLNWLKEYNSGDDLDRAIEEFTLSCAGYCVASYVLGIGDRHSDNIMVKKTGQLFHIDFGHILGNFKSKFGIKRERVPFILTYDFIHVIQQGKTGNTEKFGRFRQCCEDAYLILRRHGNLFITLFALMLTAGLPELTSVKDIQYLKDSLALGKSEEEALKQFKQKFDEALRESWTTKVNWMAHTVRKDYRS
Chain of PI3Kβ (P27986 whole entry partner, canonical isoform): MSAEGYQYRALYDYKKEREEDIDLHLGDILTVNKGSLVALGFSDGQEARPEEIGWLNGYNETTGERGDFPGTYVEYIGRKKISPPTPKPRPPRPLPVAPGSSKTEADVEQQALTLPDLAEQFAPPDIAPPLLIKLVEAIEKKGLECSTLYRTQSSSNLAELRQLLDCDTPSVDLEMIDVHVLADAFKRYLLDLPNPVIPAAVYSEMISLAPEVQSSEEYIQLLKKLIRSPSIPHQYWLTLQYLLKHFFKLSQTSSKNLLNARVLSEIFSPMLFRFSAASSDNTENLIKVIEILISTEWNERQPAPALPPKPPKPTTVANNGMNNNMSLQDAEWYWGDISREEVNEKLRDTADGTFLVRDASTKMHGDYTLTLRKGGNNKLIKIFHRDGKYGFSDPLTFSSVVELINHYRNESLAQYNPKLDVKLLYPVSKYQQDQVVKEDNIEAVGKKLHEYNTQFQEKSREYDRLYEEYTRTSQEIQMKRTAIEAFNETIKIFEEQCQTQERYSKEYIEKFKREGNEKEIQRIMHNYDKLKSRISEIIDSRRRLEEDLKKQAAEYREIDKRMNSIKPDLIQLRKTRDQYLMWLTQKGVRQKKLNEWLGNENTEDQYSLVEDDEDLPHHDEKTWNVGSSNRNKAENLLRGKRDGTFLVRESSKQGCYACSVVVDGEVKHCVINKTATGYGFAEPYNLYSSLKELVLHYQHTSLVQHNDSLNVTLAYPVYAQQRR
(§4) All solutions were prepared with pure water, filtered through 0.45 µm PVDF Filter and stored at 4 °C. For PI3K and mTOR assays, the incubation buffer was HEPES/NaOH/MgCl2 (25 mM/8.84 mM/5 mM). Its pH was 7.2 and ionic strength was about 60 mM. […] Their pH was measured with a MeterLab PHM201 Portable pH-Meter (Radiometer Analytical, Villeurbanne, France). […]
(§5) In all enzymatic assays, after incubation, the electric field (of −30 kV) was applied to separate the ADP formed during the enzymatic reaction from the other reactants. ADP was detected at 254 nm for quantification. […]

For another test, the target named is PI3Kγ (Homo sapiens, UniProt P48736). As to the kind of experiment: PI3K isoform kinase assay, γ (CE-assay). As to conditions: read-out: IC50 on PI3K Isoforms, γ. Type of test: biochemical. The procedure: as §3, §4, §5
Chain of PI3Kγ (P48736 whole entry, canonical isoform): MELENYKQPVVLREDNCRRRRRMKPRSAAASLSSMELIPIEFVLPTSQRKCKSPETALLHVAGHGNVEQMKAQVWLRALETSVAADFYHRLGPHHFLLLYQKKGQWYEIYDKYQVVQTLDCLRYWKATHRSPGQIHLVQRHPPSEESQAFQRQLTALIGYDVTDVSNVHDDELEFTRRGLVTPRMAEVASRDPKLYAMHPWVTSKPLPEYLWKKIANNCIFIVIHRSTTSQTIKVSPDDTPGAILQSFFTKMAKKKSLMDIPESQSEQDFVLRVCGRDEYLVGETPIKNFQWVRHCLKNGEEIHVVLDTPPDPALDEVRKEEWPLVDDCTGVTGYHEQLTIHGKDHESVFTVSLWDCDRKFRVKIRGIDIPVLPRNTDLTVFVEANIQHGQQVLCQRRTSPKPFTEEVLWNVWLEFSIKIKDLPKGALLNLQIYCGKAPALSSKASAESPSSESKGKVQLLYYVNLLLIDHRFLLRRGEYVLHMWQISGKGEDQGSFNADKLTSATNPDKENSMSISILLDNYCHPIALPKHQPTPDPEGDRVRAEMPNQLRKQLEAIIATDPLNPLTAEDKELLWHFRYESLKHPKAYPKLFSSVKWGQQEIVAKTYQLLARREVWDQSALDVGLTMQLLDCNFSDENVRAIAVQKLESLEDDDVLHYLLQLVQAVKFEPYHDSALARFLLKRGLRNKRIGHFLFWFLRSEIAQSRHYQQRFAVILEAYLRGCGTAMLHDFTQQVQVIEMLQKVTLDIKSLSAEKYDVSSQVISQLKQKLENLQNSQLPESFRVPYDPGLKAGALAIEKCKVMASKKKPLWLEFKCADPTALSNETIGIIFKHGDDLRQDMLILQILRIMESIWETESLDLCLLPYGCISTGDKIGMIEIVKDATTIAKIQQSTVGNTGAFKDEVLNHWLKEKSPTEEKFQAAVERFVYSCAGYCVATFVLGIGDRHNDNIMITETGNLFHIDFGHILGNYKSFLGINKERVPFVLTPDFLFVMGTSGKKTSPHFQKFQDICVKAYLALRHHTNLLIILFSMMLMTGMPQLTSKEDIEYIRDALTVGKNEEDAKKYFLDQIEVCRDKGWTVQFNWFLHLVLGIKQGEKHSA
For the next test, the target named is PI3Kδ (Homo sapiens, UniProt O00329). As to the kind of experiment: PI3K isoform kinase assay, δ (CE-assay). In kind it is biochemical. The conditions noted are these: read-out: IC50 on PI3K Isoforms, δ. The procedure: as §3, §4, §5
Chain of PI3Kδ (O00329 whole entry, canonical isoform): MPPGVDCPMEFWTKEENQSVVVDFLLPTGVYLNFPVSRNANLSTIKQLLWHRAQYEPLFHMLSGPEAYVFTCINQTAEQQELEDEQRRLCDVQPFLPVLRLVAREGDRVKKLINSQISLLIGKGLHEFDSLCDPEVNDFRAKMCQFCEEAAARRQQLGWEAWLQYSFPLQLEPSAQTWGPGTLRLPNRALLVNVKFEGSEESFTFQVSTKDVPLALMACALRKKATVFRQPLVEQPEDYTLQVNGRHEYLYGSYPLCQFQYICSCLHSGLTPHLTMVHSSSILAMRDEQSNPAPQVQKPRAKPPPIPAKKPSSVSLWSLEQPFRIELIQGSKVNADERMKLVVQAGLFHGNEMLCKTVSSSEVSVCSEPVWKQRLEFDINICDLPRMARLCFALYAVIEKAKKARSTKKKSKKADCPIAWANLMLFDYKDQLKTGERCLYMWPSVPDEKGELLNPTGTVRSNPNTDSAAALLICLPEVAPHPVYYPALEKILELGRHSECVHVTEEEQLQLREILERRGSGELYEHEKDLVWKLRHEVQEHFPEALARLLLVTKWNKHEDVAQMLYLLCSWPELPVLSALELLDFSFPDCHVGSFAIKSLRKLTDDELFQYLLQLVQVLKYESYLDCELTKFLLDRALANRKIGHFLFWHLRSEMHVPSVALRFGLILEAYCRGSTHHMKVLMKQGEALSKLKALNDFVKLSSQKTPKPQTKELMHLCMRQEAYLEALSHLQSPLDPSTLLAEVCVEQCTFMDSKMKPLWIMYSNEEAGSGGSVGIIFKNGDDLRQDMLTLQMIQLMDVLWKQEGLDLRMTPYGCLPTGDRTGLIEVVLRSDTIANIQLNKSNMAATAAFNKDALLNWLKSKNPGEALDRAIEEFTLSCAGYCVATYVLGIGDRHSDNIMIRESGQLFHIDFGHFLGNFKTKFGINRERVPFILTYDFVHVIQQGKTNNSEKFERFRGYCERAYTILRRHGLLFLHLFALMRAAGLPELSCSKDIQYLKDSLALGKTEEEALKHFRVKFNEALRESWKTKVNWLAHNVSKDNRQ
Chain of PI3Kδ (P27986 whole entry partner, canonical isoform): as the sequence (P27986 whole entry partner, canonical isoform) above
The target in the next test is PI3Kα (Homo sapiens, UniProt P42336). As to the kind of experiment: PI3Kα kinase assay (Adapta TR-FRET kit; capillary electrophoresis assay). The conditions noted are these: for IC50: mean of a triplicate experiment, standard deviation in small letters. Type of test: biochemical.
Chain of PI3Kα (P42336 whole entry): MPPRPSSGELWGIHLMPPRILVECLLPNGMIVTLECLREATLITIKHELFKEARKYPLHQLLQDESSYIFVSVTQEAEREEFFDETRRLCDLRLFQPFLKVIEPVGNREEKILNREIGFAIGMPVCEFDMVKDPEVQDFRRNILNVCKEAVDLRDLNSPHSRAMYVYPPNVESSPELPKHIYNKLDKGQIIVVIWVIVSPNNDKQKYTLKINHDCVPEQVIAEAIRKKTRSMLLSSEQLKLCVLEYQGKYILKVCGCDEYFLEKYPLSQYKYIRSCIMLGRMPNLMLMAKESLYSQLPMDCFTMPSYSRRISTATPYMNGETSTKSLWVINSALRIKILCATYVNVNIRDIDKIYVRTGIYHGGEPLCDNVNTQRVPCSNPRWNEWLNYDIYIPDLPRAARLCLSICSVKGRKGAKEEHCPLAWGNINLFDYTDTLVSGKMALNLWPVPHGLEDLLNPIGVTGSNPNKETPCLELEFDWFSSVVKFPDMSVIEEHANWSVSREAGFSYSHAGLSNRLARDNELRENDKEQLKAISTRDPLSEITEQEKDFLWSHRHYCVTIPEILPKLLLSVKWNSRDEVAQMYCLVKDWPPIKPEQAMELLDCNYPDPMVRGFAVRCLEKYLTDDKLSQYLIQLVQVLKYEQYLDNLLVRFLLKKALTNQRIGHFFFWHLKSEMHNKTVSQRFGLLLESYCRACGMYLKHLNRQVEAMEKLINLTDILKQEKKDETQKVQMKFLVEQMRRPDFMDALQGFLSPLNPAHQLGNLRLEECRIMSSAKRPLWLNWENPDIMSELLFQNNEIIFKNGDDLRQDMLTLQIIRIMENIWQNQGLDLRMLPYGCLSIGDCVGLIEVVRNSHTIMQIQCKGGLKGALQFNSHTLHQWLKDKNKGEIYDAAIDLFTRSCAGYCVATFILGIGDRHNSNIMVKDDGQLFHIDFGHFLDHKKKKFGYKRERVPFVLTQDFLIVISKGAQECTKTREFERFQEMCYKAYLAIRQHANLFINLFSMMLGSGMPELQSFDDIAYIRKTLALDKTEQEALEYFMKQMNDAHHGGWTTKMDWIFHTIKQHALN
Chain of PI3Kα (P27986 whole entry partner): as the sequence (P27986 whole entry partner, canonical isoform) above

Description for PI3Kα: PI3K kinase activity was measured with the Adapta™ assay kit (Invitrogen, PV5099, Life Technologies, Carlsbad, CA, USA) while mTOR kinase activity was measured with the LANCE^TM Ultra kit (Perkin Elmer). […] Depending on the efficiency of the inhibitor, the level of ADP (which competes with the tracer) will vary, thereby directly affecting the binding of the tracer to the antibody. The TR-FRET signal will evolve accordingly. […] The experimental process was the following: the inhibitor solution (2.5 µL) was injected in a plate followed by the addition of 2.5 µL of PI3Kα and ATP/PIP2 (5 µL) solutions. After incubating for an hour at room temperature with no agitation and with the plate sealed, the kinase reaction was stopped by adding the Detection Solution to yield final concentrations of 10 nM for the tracer, 2 nM for the antibody and 30 mM of EDTA (5 µL). All of these compounds were diluted in a Detection Buffer (PV3574, Invitrogen) and the plate was sealed and incubated for the optimal time of 30 min at room temperature without shaking before the reading step.
The CE system used was a 1600 Hewlett Packard^3DCE (Agilent, Waldbronn, Germany) equipped with a photodiode array detection system. Agilent software 3D-CE Chemstation (rev B.04.02) was used to pilot the CE system and for signal acquisition. CE analyses were performed in silica capillaries (66 cm total length, 57.5 cm effective length, 50 µm i.d.) purchased from Polymicro Technologies (Phoenix, AZ, USA). New capillaries were conditioned by 1.0 M NaOH for 30 min and water for 5 min. They were then coated by rinsing with cationic PDADMAC solution (0.2% w/v) [46, 47]. The separation was conducted at −30 kV (reverse polarity) and at 30 °C. All rinse cycles were carried out at 4 bars. Between runs, the capillary was flushed for 1 min with water, 2 min with PDADMAC and 3 min with BGE.
(§6) All solutions were prepared with pure water, filtered through 0.45 µm PVDF Filter and stored at 4 °C. […] Their pH was measured with a MeterLab PHM201 Portable pH-Meter (Radiometer Analytical, Villeurbanne, France). […]
Description for mTOR: The amount of antibody bound to the peptide is directly related to its rate of phosphorylation. […] The experimental process was the following: inhibitor solution (2.5 µL) was injected in a plate followed by the addition of 2.5 µL of mTOR, and ATP/peptide (2.5 µL) solutions. After incubating for two hours at room temperature with no agitation and with the plate sealed, the kinase reaction was stopped by adding 5 μL of a solution at 32 mM EDTA. After 5 min of plate agitation, the detection solution (CR97-100, Perkin-Elmer) containing the antibody (5 μL) was added in each well to yield a final concentration of 2 nM of the antibody. The plate was sealed and incubated for the optimal time of 1h at room temperature without shaking before the assay readout at 665 nm.
The CE system used was a 1600 Hewlett Packard^3DCE (Agilent, Waldbronn, Germany) equipped with a photodiode array detection system. […]
as §6

On to `Oc1cccc(-c2nc(N3CCOCC3)c3ncc(Cl)cc3n2)c1` [Compound 5, 7-Chloro-2-(3-hydroxyphenyl)-4-morpholinylpyrido[3,2-d]pyrimidine], for which the IC50 (in test [1]; with normal human fibroblast) was greater than 25 µM each time.

Take `Cc1cnc2c(N3CCOCC3)nc(-c3cccc(O)c3)nc2c1` [Compound 6, 3-(7-Methyl-4-morpholinylpyrido[3,2-d]pyrimidin-2-yl)phenol]: on mTOR, the “SI (mTOR/PI3Kα Ratio)” value amounted to 4.6. In addition, the IC50 stood at 0.45 µM on PI3Kβ, 5.5 µM on PI3Kγ and 1.4 µM on PI3Kδ.

In the case of `OCc1cnc2c(N3CCOCC3)nc(-c3cccc(O)c3)nc2c1` [Compound 15, 3-(7-(Hydroxymethyl)-4-morpholinylpyrido[3,2-d]pyrimidin-2-yl)phenol], on PI3Kα (C-7 hydroxymethyl compared with chlorine or methyl derivatives 5 and 6), the “fold reduction in the PI3Kα inhibition level” value stood at 30 fold.

`[N-]=[N+]=NCc1cnc2c(N3CCOCC3)nc(-c3cccc(O)c3)nc2c1` [Compound 19, 3-(7-(Azidomethyl)-4-morpholinylpyrido[3,2-d]pyrimidin-2-yl)phenol]: the IC50 (in test [1]; in the test with normal human fibroblast) was greater than 25 µM each time.

Consider `COCc1cn(Cc2cnc3c(N4CCOCC4)nc(-c4cccc(O)c4)nc3c2)nn1` [Compound 21, 3-(7-((4-(Methoxymethyl)-1H-1.2.3-triazol-1-yl)methyl)-4-morpholinylpyrido[3,2-d]pyrimidin-2-yl)phenol], for which the IC50 against PI3Kα was 0.01 µM; on PI3Kβ it was 0.05 µM; on PI3Kγ it was 2 µM; at PI3Kδ, 1.2 µM; in the test on normal human fibroblast, greater than 25 µM.

On to `CO/N=C/c1cnc2c(N3CCOCC3)nc(-c3cccc(O)c3)nc2c1` [Compound 32, 2-(3-Hydroxyphenyl)-4-morpholinylpyrido[3,2-d]pyrimidine-7-carbaldehyde O-methyl oxime], for which the values for the IC50 (at PI3Kα; in test [1]) were 0.003 µM and greater than 25 µM, respectively. Besides, at mTOR, the “SI (mTOR/PI3Kα Ratio)” value came to 33.3.

For orientation: IC50 means the midpoint of a concentration-inhibition curve.
